Laboratory results taken from patent US9617256B2 (priority 2007, dated 2017).
In brackets after ≈: the same amount, converted by molar mass.

Columns and labels:
[1] = system: AECO063 (ATCC25922 bearing an acrAB mutation); test: microbe, parasite or virus in culture; format: cell-based, E. coli; conditions: for MIC: Escherichia coli, ATCC25922, read-out: MIC AECO063
Procedure, shortened: (§1)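 Inocula prepared from 0.5 McFarland suspensions (final 3×10^5–7×10^5 CFU/mL) were added to 2-fold drug dilution series in cation-adjusted Mueller-Hinton broth. Plates stood 18-24 hours at 35° C. under ambient air.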

[2] = system: APAE006 (strain of P. aeruginosa in which all efflux pumps are inactivated); test: microbe, parasite or virus in culture; format: cell-based; conditions: for MIC: Pseudomonas aeruginosa, read-out: MIC APAE006, P. aeruginosa, all efflux pumps inactivated
Procedure, shortened: (§2)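 For the efflux-deficient P. aeruginosa APAE006, one set of MICs includes polymyxin B nonapeptide at 8 micrograms per milliliter.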

APAE001 (ATCC27853) = test: MIC broth microdilution, APAE001; format: cell-based, P. aeruginosa; conditions: for MIC: Pseudomonas aeruginosa, ATCC27853, read-out: MIC APAE001, APAE001 is ATCC27853
Procedure, shortened: as §1

[3] = system: APAE006 in the presence of 8 micrograms per milliliter of polymyxin B nonapeptide; format: cell-based, P. aeruginosa; conditions: in the presence of 8 micrograms per milliliter of polymyxin B nonapeptide
Procedure, shortened: as §2

[4] = system: ASAU001 (laboratory strain of S. aureus, ATCC29213); test: MIC broth microdilution, ASAU001; format: cell-based; conditions: for MIC: Staphylococcus aureus, ATCC29213, read-out: MIC ASAU001
Procedure, shortened: as §1

AECO001 HSA AGP = test: MIC broth microdilution, AECO001 HSA AGP; format: cell-based, E. coli; conditions: for MIC: Escherichia coli
Procedure: Bacterial isolates were cultivated from −70° C. frozen stocks by overnight passages at 35° C. in ambient air on Mueller-Hinton agar (Beckton Dickinson, Franklin Lakes, N.J.). Clinical isolates tested were obtained from various geographically diverse hospitals in the US and abroad (Focus Diagnostics, Herndon, Va. and JMI, North Liberty, Iowa). Quality control strains were from the American Type Culture Collection (ATCC; Rockville, Md.). Additional primary panel strains were generated using standard molecular biology techniques.
Minimum Inhibitory Concentrations (MICs) were determined by the broth microdilution method in accordance with the Clinical and Laboratory Standards Institute (CLSI) guidelines. In brief, organism suspensions were adjusted to a 0.5 McFarland standard to yield a final inoculum between 3×10^5 and 7×10^5 colony-forming units (CFU)/mL. Drug dilutions and inocula were made in sterile, cation adjusted Mueller-Hinton Broth (Beckton Dickinson). An inoculum volume of 100 μL was added to wells containing 100 μL of broth with 2-fold serial dilutions of drug. All inoculated microdilution trays were incubated in ambient air at 35° C. for 18-24 hours. […] Performance of the assay was monitored by the use of laboratory quality-control strains and levofloxacin, a compound with a defined MIC spectrum, in accordance with CLSI guidelines.
*AECO001 is ATCC25922, AECO063 is ATCC25922 bearing an acrAB mutation, APAE001 is ATCC27853, APAE006 is a strain of P. aeruginosa in which all efflux pumps are inactivated, APAE006+PMBN indicates MICs with the indicated strain in the presence of 8 micrograms per milliliter of polymyxin B nonapeptide, AABA1060 is a clinical isolate of Acinetobacter baumannii, ASAU001 is a laboratory strain of S. aureus (ATCC29213).

[5] = system: AABA1060 (clinical isolate of Acinetobacter baumannii); test: MIC broth microdilution, AABA1060; format: cell-based; conditions: for MIC: Acinetobacter baumannii, read-out: MIC AABA1060
Procedure, shortened: as §1

AECO001 (ATCC25922) = test: MIC broth microdilution, AECO001; format: cell-based, E. coli; conditions: for MIC: Escherichia coli, ATCC25922, read-out: MIC AECO001
Procedure, shortened: as §1

Row | SMILES | MIC [1] [mg/L] | MIC [2] [mg/L] | MIC (APAE001 (ATCC27853)) [mg/L] | MIC APAE006 + PMBN [3] | MIC [4] [mg/L] | MIC (AECO001 HSA AGP) [mg/L] | MIC [5] [mg/L] | MIC (AECO001 (ATCC25922)) [mg/L] | MIC AECO063 ([1]; ATCC25922 bearing an acrAB mutation) | MIC APAE006 ([2]; P. aeruginosa, all efflux pumps inactivated) | MIC APAE001 (APAE001 (ATCC27853); APAE001 is ATCC27853) | MIC ASAU001 ([4]; S. aureus ATCC29213) | MIC AECO001 HSA AGP (AECO001 HSA AGP) | MIC AABA1060 ([5]; clinical isolate of Acinetobacter baumannii) | MIC AECO001 (AECO001 (ATCC25922); AECO001 is ATCC25922)
1 | C[C@@H](O)[C@H](NC(=O)c1ccc(/C=C/C#Cc2ccc(CNC3CC3)cc2)cc1)C(=O)NO [Example 113-3] | < 2 | < 2 | 2 to 16 (≈ 4.61 to 36.9 µM) | A (MIC's of 2.0 μg/mL or less = A) | > 64 | 2 to 16 (≈ 4.61 to 36.9 µM) | 2 to 16 (≈ 4.61 to 36.9 µM) | < 2 |  |  |  |  |  |  | 
2 | CC(=O)NC[C@H](NC(=O)c1ccc(/C=C/C#Cc2ccc(CN3CCOCC3)cc2)cc1)C(=O)NO [Example 111-3, N-[2-acetylamino-1-((S)-hydroxycarbamoyl)-ethyl]-4-[(E)-4-(4-morpholin-4-ylmethyl-phenyl)-but-1-en-3-ynyl]-] | < 2 | < 2 | 2 to 16 (≈ 4.08 to 32.6 µM) | A (MIC's of 2.0 μg/mL or less = A) | > 64 | 2 to 16 (≈ 4.08 to 32.6 µM) | 2 to 16 (≈ 4.08 to 32.6 µM) | < 2 |  |  |  |  |  |  | 
3 | C[C@@H](NC(=O)CNC1CC1)[C@H](NC(=O)c1ccc(C#C/C=C/c2ccccc2)cc1)C(=O)NO [Example 105-3] |  |  |  | A (MIC's of 2.0 μg/mL or less = A) |  |  |  |  | B (MIC's of greater than 2.0 μg/mL to 16.0 μg/mL = B) | B (MIC's of greater than 2.0 μg/mL to 16.0 μg/mL = B) | C (MIC's of greater than 16.0 μg/mL to 64.0 μg/mL = C) | C (MIC's of greater than 16.0 μg/mL to 64.0 μg/mL = C) | C (MIC's of greater than 16.0 μg/mL to 64.0 μg/mL = C) | C (MIC's of greater than 16.0 μg/mL to 64.0 μg/mL = C) | C (MIC's of greater than 16.0 μg/mL to 64.0 μg/mL = C)
4 | C[C@@H](N)[C@H](NC(=O)c1ccc(/C=C/C#Cc2ccc(CN3CCOCC3)cc2)cc1)C(=O)NO [Example 110-3] | < 2 | < 2 | < 2 | A (MIC's of 2.0 μg/mL or less = A) | > 64 | 2 to 16 (≈ 4.32 to 34.6 µM) | 2 to 16 (≈ 4.32 to 34.6 µM) | < 2 |  |  |  |  |  |  | 
5 | C[C@@H](N)[C@H](NC(=O)c1ccc(C#Cc2ccc(CS(C)(=O)=O)cc2)cc1)C(=O)NO [Example 120-2] | < 2 | < 2 | 2 to 16 (≈ 4.66 to 37.3 µM) | A (MIC's of 2.0 μg/mL or less = A) | 16 to 64 (≈ 37.3 to 149 µM) | 16 to 64 (≈ 37.3 to 149 µM) | 16 to 64 (≈ 37.3 to 149 µM) | 2 to 16 (≈ 4.66 to 37.3 µM) |  |  |  |  |  |  | 
6 | C[C@@H](N)[C@H](NC(=O)c1ccc(C#Cc2ccncc2)cc1)C(=O)NO [Example 133-8] | 2 to 16 (≈ 5.91 to 47.3 µM) | < 2 | 2 to 16 (≈ 5.91 to 47.3 µM) | A (MIC's of 2.0 μg/mL or less = A) | > 64 | 16 to 64 (≈ 47.3 to 189 µM) | 16 to 64 (≈ 47.3 to 189 µM) | 16 to 64 (≈ 47.3 to 189 µM) |  |  |  |  |  |  | 
7 | C[C@@H](O)[C@H](NC(=O)c1ccc(C#Cc2cccc(OC(F)(F)F)c2)cc1)C(=O)NO [Example 133-11] | < 2 | 2 to 16 (≈ 4.74 to 37.9 µM) | 16 to 64 (≈ 37.9 to 152 µM) | A (MIC's of 2.0 μg/mL or less = A) | 16 to 64 (≈ 37.9 to 152 µM) | 16 to 64 (≈ 37.9 to 152 µM) | 16 to 64 (≈ 37.9 to 152 µM) | < 2 |  |  |  |  |  |  | 
8 | C[C@@H](N)[C@H](NC(=O)c1ccc(/C=C/C#Cc2ccc(F)cc2)cc1)C(=O)NO [Example 114-2] | < 2 | < 2 | 2 to 16 (≈ 5.24 to 41.9 µM) | A (MIC's of 2.0 μg/mL or less = A) | 16 to 64 (≈ 41.9 to 168 µM) | 2 to 16 (≈ 5.24 to 41.9 µM) | 2 to 16 (≈ 5.24 to 41.9 µM) | < 2 |  |  |  |  |  |  | 
9 | C[C@@H](N)[C@H](NC(=O)c1ccc(C#CC#Cc2ccccn2)cc1)C(=O)NO [Example 88-4] | < 2 | < 2 | < 2 | A (MIC's of 2.0 μg/mL or less = A) | > 64 | 16 to 64 (≈ 44.2 to 177 µM) | 16 to 64 (≈ 44.2 to 177 µM) | 2 to 16 (≈ 5.52 to 44.2 µM) |  |  |  |  |  |  | 
10 | C[C@H](N)[C@H](NC(=O)c1ccc(C#Cc2ccc(CN3CCOCC3)cc2)cc1)C(=O)NO [Example 133-2] | < 2 | < 2 | < 2 | A (MIC's of 2.0 μg/mL or less = A) | > 64 | 16 to 64 (≈ 36.7 to 147 µM) | 16 to 64 (≈ 36.7 to 147 µM) | < 2 |  |  |  |  |  |  | 
11 | O=C(CNC1CC1)NC[C@H](NC(=O)c1ccc(C#C/C=C/c2ccc(CO)cc2)cc1)C(=O)NO [Example 103-1, N—[(S)-2-(2-cyclopropylamino-acetylamino)-1-hydroxycarbamoyl-ethyl]-4-[(E)-4-(4-hydroxymethyl-phenyl)-but-3-en-1-ynyl]-benzamide] | < 2 | < 2 | 2 to 16 (≈ 4.2 to 33.6 µM) | A (MIC's of 2.0 μg/mL or less = A) | > 64 | 2 to 16 (≈ 4.2 to 33.6 µM) | > 64 | < 2 |  |  |  |  |  |  | 
12 | C[C@@H](O)[C@H](NC(=O)c1ccc(CCc2ccc(CN3CCOCC3)cc2)cc1)C(=O)NO [Example 137-8] | < 2 | < 2 | 2 to 16 (≈ 4.53 to 36.2 µM) | A (MIC's of 2.0 μg/mL or less = A) | 16 to 64 (≈ 36.2 to 145 µM) | 16 to 64 (≈ 36.2 to 145 µM) | 16 to 64 (≈ 36.2 to 145 µM) | 2 to 16 (≈ 4.53 to 36.2 µM) |  |  |  |  |  |  | 
13 | O=C(CNC1CC1)NC[C@H](NC(=O)c1ccc(/C=C/C#Cc2ccc(CO)cc2)cc1)C(=O)NO [Example 113-11] | < 2 | < 2 | 2 to 16 (≈ 4.2 to 33.6 µM) | A (MIC's of 2.0 μg/mL or less = A) | > 64 | 16 to 64 (≈ 33.6 to 134 µM) | 16 to 64 (≈ 33.6 to 134 µM) | < 2 |  |  |  |  |  |  | 
14 | C[C@@H](N)[C@H](NC(=O)c1ccc(C#CC#Cc2cncn2C)cc1)C(=O)NO [Example 88-1, N-((1S,2R)-2-Amino-1-hydroxycarbamoyl-propyl)-4-[4-(3-methyl-3H-imidazol-4-yl)-buta-1,3-diynyl]-benzamide] | < 2 | < 2 | 2 to 16 (≈ 5.47 to 43.8 µM) | A (MIC's of 2.0 μg/mL or less = A) | 16 to 64 (≈ 43.8 to 175 µM) | 2 to 16 (≈ 5.47 to 43.8 µM) | 16 to 64 (≈ 43.8 to 175 µM) | < 2 |  |  |  |  |  |  | 
15 | CN(C)CC(=O)NC[C@H](NC(=O)c1ccc(C#C/C=C/c2ccc(CN3CCOCC3)cc2)cc1)C(=O)NO [Example 98-2, N—[(S)-2-(2-dimethylamino-acetylamino)-1-hydroxycarbamoyl-ethyl]-4-[(E)-4-(4-morpholin-4-ylmethyl-phenyl)-but-3-en-1-ynyl]-benzamide] | < 2 | < 2 | 2 to 16 (≈ 3.75 to 30 µM) | A (MIC's of 2.0 μg/mL or less = A) | 16 to 64 (≈ 30 to 120 µM) | 2 to 16 (≈ 3.75 to 30 µM) | 16 to 64 (≈ 30 to 120 µM) | < 2 |  |  |  |  |  |  | 
16 | CO[C@H](C)[C@H](NC(=O)c1ccc(/C=C/C#Cc2ccc(CO)cc2)cc1)C(=O)NO [Example 112-4] | < 2 | < 2 | < 2 | A (MIC's of 2.0 μg/mL or less = A) | 16 to 64 (≈ 39.2 to 157 µM) | 2 to 16 (≈ 4.9 to 39.2 µM) | < 2 | < 2 |  |  |  |  |  |  | 
17 | C[C@@H](N)[C@H](NC(=O)c1ccc(C#Cc2ccc(CN3CCC3)cc2)cc1)C(=O)NO [Example 118-1, N-((1S,2R)-2-Amino-1-hydroxycarbamoyl-propyl)-4-(4-azetidin-1-ylmethyl-phenylethynyl)-benzamide] | 2 to 16 (≈ 4.92 to 39.4 µM) | < 2 | 2 to 16 (≈ 4.92 to 39.4 µM) | A (MIC's of 2.0 μg/mL or less = A) | 16 to 64 (≈ 39.4 to 157 µM) | 16 to 64 (≈ 39.4 to 157 µM) | 16 to 64 (≈ 39.4 to 157 µM) | 16 to 64 (≈ 39.4 to 157 µM) |  |  |  |  |  |  | 
